Experimental data from ChEMBL document CHEMBL3603802, “Design and synthesis of new non nucleoside inhibitors of DNMT3A” (Bioorg Med Chem, 2015).

Legend:
[1] = target: T1, DNA (cytosine-5)-methyltransferase 3A (Homo sapiens, UniProt Q9Y6K1); test: Inhibition of human C-terminal DNMT3A at 32 uM after 1 hr by fluorescence assay
[2] = Chemical stability of the compound in DMSO by HPLC analysis; assay type: physicochemical
[3] = target: T1, DNA (cytosine-5)-methyltransferase 3A; test: Inhibition of human C-terminal DNMT3A at 20 uM after 1 hr by fluorescence assay
[4] = Antiproliferative activity against human KG1 cells after 2 to 4 days by ATPlite 1step luminescence assay; assay type: functional, cell-based; details: KG-1
[5] = Antiproliferative activity against human KARPAS299 cells after 2 to 4 days by ATPlite 1step luminescence assay; assay type: functional, cell-based; details: KARPAS-299
[6] = system: HCT-116; test: Antiproliferative activity against human HCT116 cells after 2 to 4 days by ATPlite 1step luminescence assay; assay type: functional, cell-based
[7] = Chemical stability of the compound after 30 mins by LC-MS analysis in presence of glutathione; assay type: physicochemical; details: 0.5 h
[8] = target: T1, DNA (cytosine-5)-methyltransferase 3A; test: Inhibition of human C-terminal DNMT3A after 1 hr by fluorescence assay
[9] = target: DNA (cytosine-5)-methyltransferase 1 (Homo sapiens) (UniProt P26358); test: Inhibition of human His-DNMT1 using [methyl-3H]SAM as substrate at 100 uM after 2 hrs
[10] = target: DNA (cytosine-5)-methyltransferase 1 (Homo sapiens) (UniProt P26358); test: Inhibition of human His-DNMT1 using [methyl-3H]SAM as substrate at 32 uM after 2 hrs

T1 sequence (Q9Y6K1 whole entry, looked up): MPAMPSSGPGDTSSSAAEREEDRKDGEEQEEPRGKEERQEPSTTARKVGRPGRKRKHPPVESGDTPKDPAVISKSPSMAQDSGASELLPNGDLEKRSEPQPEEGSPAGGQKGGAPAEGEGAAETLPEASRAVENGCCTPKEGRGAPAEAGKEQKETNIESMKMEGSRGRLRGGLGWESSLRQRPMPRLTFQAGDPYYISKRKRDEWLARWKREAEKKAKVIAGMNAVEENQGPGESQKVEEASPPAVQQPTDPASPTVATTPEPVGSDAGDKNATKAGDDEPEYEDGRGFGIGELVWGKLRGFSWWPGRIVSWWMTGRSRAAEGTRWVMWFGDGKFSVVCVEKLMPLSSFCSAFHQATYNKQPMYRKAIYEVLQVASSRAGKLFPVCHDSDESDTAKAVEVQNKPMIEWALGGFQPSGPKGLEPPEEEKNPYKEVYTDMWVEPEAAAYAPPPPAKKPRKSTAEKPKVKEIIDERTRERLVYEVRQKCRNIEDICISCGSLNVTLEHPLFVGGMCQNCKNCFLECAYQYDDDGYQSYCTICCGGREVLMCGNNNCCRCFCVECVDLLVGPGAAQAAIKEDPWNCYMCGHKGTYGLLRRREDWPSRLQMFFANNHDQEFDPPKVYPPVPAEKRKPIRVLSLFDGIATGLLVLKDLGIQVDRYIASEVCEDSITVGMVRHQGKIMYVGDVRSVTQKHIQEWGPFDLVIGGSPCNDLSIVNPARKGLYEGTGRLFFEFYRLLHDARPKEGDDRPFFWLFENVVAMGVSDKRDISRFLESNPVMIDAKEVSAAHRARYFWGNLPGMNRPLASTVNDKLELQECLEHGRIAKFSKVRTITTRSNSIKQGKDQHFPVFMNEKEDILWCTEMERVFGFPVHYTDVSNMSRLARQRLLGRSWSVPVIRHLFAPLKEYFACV
Sequence of DNA (cytosine-5)-methyltransferase 1 (Homo sapiens) (P26358 whole entry): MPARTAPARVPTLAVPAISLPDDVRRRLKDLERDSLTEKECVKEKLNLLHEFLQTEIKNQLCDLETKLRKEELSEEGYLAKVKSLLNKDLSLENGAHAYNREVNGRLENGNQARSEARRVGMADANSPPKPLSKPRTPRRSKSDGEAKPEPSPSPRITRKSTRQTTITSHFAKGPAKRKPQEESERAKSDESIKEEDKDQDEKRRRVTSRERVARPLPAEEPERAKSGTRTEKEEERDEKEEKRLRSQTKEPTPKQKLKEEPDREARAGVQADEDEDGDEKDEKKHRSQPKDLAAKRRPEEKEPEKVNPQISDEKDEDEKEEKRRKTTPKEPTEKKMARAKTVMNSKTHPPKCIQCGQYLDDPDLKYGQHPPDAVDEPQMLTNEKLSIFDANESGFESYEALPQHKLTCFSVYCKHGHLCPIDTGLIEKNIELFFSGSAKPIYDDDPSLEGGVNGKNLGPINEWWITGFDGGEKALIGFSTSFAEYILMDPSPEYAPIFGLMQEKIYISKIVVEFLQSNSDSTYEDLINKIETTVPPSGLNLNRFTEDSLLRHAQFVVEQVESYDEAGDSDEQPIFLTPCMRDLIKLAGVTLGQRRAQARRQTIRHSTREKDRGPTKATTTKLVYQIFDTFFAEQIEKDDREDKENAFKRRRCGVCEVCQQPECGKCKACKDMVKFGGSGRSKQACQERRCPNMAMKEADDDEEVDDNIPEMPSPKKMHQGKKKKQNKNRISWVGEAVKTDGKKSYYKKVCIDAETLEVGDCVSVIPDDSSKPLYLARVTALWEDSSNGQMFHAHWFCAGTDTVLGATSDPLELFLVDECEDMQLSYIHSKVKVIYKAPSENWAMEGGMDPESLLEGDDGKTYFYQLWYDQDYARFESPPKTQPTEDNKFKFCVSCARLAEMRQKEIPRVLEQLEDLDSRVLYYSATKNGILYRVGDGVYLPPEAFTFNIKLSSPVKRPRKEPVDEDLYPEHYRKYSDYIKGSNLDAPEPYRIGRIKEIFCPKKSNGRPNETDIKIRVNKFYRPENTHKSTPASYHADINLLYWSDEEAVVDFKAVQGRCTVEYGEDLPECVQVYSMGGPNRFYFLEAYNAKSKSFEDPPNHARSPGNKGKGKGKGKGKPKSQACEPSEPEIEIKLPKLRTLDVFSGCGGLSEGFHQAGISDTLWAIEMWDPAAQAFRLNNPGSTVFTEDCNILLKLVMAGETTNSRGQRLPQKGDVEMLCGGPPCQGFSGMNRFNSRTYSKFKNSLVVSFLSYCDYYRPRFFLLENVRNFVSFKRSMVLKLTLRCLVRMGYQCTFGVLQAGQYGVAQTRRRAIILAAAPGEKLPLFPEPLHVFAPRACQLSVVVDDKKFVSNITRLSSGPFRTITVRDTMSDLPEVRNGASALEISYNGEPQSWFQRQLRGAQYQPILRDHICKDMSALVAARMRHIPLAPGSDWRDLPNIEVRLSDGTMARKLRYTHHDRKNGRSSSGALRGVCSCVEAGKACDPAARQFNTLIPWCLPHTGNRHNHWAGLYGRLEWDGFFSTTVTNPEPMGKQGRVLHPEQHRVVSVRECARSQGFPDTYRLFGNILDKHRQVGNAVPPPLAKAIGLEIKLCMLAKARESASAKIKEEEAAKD

Row | Structure (SMILES) | inhibition [1] [%] | inhibition [3] [%] | other results
1 | O=C(c1ccc(Cl)cc1)C(CSc1ncc[nH]1)n1cnc2ccccc21 (stereo unspecified) | 38 | – | –
2 | CN(C)/C=C(/C(=O)c1ccc(Cl)cc1)n1cnc2ccccc21 | 0 | – | Stability [2]: Stable
3 | O=C(c1ccc(Cl)cc1)C(CSCc1ccco1)n1cnc2ccccc21 (stereo unspecified) | 55 | – | –
4 | CCSCC(C(=O)c1ccc(Cl)cc1)n1ccnc1 (stereo unspecified) | – | 43 | –
5 | O=C(c1ccc(Cl)cc1)C(CSC1CCCCC1)n1cnc2ccccc21 (stereo unspecified) | – | 44 | –
6 | CCOCC(C(=O)c1ccc(Cl)cc1)n1cnc2ccccc21 (stereo unspecified) | 63 | – | –
7 | CCSCC(Cn1cccn1)C(=O)c1ccc(Cl)cc1 (stereo unspecified) | – | 18 | –
8 | O=C(/C(=C/C=C/c1ccccc1)n1cnc2ccccc21)c1ccc(Cl)cc1 | 0 | – | Stability [2]: Stable
9 | CC(C)(C)SC(C(=O)c1ccc(Cl)cc1)n1cnc2ccccc21 (stereo unspecified) | – | 10 | –
10 | CCSCC(C(=O)c1ccc(OC)cc1)n1cnc2ccccc21 (stereo unspecified) | 0 | – | EC50 [4]: > 10 µM; EC50 [5]: > 10 µM; EC50 [6]: > 10 µM
11 | CCSCC(C(=O)c1ccc(Cl)cc1)n1cccn1 (stereo unspecified) | – | 17 | –
12 | O=C(c1ccc(Cl)cc1)C(CSCc1cccc([N+](=O)[O-])c1)n1cnc2ccccc21 (stereo unspecified) | 40 | – | –
13 | O=C(c1ccc(Cl)cc1)C(CSCc1ncccn1)n1cnc2ccccc21 (stereo unspecified) | 43 | – | –
14 | CCSCC(C(=O)c1ccc(Cl)cc1)n1cnc2c(N)ncnc21 (stereo unspecified) | 0 | – | –
15 | CCSCC(C(=O)c1ccccc1)n1cnc2ccccc21 (stereo unspecified) | 34 | – | –
16 | CCSCC(C(OC)c1ccc(Cl)cc1)n1cnc2ccccc21 (stereo unspecified) | – | 5 | –
17 | CCSCC(C(=O)c1ccc(Cl)cc1)n1cnc2ncnc(N)c21 (stereo unspecified) | 54 | – | –
18 | CC(C)(C)SCC(C(=O)c1ccc(Cl)cc1)n1cnc2ccccc21 (stereo unspecified) | – | 40 | –

Row | Structure (SMILES) | inhibition [1] [%] | inhibition [3] [%] | other results
19 | CC(C)SCC(C(=O)c1ccc(Cl)cc1)n1cnc2ccccc21 (stereo unspecified) | – | 43 | –
20 | COc1ccc(CSCC(C(=O)c2ccc(Cl)cc2)n2cnc3ccccc32)cc1 (stereo unspecified) | 34 | – | –
21 | C=C(C(=O)c1ccc(Cl)cc1)n1cnc2ccccc21 | 81 | – | Stability [7]: Unstable; EC50 [8]: 4 µM
22 | O=C(c1ccc(Cl)cc1)C(CSCc1ccccc1)n1cnc2ccccc21 (stereo unspecified) | 25 | 69 | –
23 | CCSCC(C(=O)c1ccc(Cl)c(Cl)c1)n1cnc2ccccc21 (stereo unspecified) | 38 | – | EC50 [4]: 3.7 µM; EC50 [5]: > 10 µM; EC50 [6]: 3.1 µM
24 | Cc1cc(Nc2ccc(NC(=O)c3ccc(Nc4ccnc5ccccc45)cc3)cc2)nc(N)n1 | – | – | EC50 [4]: 4.4 µM; EC50 [5]: 1.8 µM; EC50 [6]: > 10 µM
25 | CCSCC(Cn1ccnc1)C(=O)c1ccc(Cl)cc1 (stereo unspecified) | – | 9 | –
26 | CCSC(C(=O)c1ccc(Cl)cc1)n1cnc2ccccc21 (stereo unspecified) | – | 15 | –
27 | O=C(Cn1cnc2ccccc21)c1ccc(Cl)cc1 | 12 | – | –
28 | O=C(c1ccc(Cl)cc1)C(CSCC1CCCC1)n1cnc2ccccc21 (stereo unspecified) | 36 | – | –
29 | CCOC(c1ccc(Cl)cc1)C(CSCC)n1cnc2ccccc21 (stereo unspecified) | – | 9 | –
30 | CC(C)SC(C(=O)c1ccc(Cl)cc1)n1cnc2ccccc21 (stereo unspecified) | – | 5 | –
31 | CCSCC(Cn1cnc2ccccc21)C(=O)c1ccc(Cl)cc1 (stereo unspecified) | – | 23 | –
32 | CCOCC(C(=O)c1ccc(Cl)cc1)n1cnc2ncnc(N)c21 (stereo unspecified) | 70 | – | inhibition [9]: 29%; Stability [2]: Unstable; EC50 [8]: 2.1 µM
33 | CCSCC(C(O)c1ccc(Cl)cc1)n1cnc2ccccc21 (stereo unspecified) | – | 4 | –
34 | O=C(c1ccc(Cl)cc1)C(SC1CCCCC1)n1cnc2ccccc21 (stereo unspecified) | – | 21 | –
35 | CCSCC(C(=O)c1ccc(Cl)cc1)n1cnc2ccccc21 (stereo unspecified) | 45 | 70 | inhibition [9]: 22%; Stability [2]: Unstable; inhibition [10]: 70%; EC50 [8]: 3 µM
